Results taken from the kinase profiling compilation of Christmann-Franck et al. (2016).

Tests used:
Assay in all cases: radiometric filter-binding kinase assay, Kinase HotSpot
Conditions in all cases: compound 0.5 µM; ATP 10 µM
ABL2 (human) = ABL2 (human) (UniProt P42684)
ACVR1B (human) = ACVR1B (human) (UniProt P36896)
ADRBK2 (human) = ADRBK2 (human) (UniProt P35626)
AURKA (human) = AURKA (human) (UniProt O14965)
BRSK1 (human) = BRSK1 (human) (UniProt Q8TDC3)
CDC42BPB (human) = CDC42BPB (human) (UniProt Q9Y5S2)
CDK2 CCNA2 (human) = CDK2 CCNA2 (human) (UniProt P24941+P20248)
CDK9 CCNT1 (human) = CDK9 CCNT1 (human) (UniProt P50750+O60563)
CSNK1A1 (human) = CSNK1A1 (human) (UniProt P48729)
Chain of CSNK1A1 (human) (P48729 whole entry, looked up): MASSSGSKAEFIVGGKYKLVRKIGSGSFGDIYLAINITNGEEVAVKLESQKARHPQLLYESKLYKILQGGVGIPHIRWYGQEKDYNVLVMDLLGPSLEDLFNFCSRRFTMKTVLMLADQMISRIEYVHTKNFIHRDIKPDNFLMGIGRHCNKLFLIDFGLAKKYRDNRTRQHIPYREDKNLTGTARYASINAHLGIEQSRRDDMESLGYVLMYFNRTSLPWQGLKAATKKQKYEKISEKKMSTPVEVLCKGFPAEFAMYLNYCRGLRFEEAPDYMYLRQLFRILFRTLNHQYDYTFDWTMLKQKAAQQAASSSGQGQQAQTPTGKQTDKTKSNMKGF

CSNK1E (human) = CSNK1E (human) (UniProt P49674)
Chain of CSNK1E (human) (P49674 whole entry, looked up): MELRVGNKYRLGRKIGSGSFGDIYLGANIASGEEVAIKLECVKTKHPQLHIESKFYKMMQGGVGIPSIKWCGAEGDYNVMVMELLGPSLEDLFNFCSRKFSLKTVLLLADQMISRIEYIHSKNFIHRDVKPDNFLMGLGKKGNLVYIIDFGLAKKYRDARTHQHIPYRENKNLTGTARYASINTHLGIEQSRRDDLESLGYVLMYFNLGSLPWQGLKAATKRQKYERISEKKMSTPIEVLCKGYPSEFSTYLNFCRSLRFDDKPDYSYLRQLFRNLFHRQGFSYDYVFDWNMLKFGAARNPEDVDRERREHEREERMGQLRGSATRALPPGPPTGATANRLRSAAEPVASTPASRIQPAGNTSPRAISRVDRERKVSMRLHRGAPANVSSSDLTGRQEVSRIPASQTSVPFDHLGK

CSNK1G3 (human) = CSNK1G3 (human) (UniProt Q9Y6M4)
EPHA4 (human) = EPHA4 (human) (UniProt P54764)
Chain of EPHA4 (human) (P54764 whole entry, looked up): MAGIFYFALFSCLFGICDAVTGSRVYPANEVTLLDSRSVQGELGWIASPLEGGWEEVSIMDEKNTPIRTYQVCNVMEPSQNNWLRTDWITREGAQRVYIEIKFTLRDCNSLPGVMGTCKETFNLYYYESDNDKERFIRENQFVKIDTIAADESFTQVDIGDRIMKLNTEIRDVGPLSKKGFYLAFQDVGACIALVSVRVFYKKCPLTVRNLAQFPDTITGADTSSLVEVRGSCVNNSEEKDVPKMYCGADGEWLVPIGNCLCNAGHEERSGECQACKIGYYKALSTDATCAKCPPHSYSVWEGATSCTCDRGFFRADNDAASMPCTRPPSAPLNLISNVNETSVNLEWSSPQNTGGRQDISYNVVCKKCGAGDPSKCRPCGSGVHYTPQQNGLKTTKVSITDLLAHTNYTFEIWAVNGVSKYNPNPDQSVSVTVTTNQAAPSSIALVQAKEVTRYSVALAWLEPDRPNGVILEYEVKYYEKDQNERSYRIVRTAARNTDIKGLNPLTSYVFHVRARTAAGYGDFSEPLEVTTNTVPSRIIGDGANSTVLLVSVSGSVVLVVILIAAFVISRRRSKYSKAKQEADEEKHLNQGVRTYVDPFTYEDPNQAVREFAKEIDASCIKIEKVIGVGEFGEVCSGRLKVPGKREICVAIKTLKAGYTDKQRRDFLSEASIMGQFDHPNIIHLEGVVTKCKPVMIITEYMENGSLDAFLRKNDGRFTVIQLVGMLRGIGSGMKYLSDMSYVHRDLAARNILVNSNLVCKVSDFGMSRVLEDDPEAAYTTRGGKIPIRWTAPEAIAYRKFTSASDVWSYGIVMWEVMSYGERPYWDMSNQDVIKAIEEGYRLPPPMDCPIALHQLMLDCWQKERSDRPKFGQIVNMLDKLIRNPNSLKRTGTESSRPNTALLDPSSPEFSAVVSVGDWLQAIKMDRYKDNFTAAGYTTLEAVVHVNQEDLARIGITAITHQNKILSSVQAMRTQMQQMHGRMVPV

EPHA8 (human) = EPHA8 (human) (UniProt P29322)
EPHB3 (human) = EPHB3 (human) (UniProt P54753)
FLT1 (human) = FLT1 (human) (UniProt P17948)
Chain of FLT1 (human) (P17948 whole entry, looked up): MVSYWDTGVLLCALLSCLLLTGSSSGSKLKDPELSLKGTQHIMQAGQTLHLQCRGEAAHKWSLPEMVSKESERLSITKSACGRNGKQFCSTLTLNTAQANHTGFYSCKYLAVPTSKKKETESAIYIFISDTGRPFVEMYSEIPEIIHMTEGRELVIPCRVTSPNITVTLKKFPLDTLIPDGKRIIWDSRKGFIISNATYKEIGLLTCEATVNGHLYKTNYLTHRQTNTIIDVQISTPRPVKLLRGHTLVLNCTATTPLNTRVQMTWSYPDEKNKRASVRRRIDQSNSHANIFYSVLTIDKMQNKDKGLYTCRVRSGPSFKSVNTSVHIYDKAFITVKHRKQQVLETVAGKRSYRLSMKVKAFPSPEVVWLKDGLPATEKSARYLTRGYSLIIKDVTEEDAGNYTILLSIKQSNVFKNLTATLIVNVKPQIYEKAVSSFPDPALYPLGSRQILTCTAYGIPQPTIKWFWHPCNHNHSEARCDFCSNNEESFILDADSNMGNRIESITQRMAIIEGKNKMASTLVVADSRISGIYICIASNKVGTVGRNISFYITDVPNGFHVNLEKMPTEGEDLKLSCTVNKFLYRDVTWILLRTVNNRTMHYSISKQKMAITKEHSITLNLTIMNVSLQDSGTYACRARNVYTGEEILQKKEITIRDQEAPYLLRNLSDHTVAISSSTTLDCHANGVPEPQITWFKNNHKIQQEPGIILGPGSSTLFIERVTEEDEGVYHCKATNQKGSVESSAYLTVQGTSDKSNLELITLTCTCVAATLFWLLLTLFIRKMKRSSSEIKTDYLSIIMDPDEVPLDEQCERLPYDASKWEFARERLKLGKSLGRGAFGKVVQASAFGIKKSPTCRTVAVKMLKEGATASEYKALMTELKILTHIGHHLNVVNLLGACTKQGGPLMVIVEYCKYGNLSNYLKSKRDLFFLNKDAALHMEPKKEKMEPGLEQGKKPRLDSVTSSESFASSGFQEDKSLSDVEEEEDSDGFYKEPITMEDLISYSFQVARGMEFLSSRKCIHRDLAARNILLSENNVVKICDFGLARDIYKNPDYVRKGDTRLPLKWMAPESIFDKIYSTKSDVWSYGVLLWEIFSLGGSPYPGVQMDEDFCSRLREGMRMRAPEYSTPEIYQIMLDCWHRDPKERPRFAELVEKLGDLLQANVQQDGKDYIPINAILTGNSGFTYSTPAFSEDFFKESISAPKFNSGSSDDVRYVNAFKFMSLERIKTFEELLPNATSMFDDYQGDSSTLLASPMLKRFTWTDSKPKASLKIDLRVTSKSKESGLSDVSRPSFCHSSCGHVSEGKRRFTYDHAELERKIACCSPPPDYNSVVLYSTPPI

GRK4 (human) = GRK4 (human) (UniProt P32298)
GRK6 (human) = GRK6 (human) (UniProt P43250)
HIPK2 (human) = HIPK2 (human) (UniProt Q9H2X6)
JAK3 JH1 JH2 (human) = JAK3 JH1 JH2 (human) (UniProt P52333)
KDR (human) = KDR (human) (UniProt P35968)
MAP3K8 (human) = MAP3K8 (human) (UniProt P41279)
MAPK9 (human) = MAPK9 (human) (UniProt P45984)
MAPKAPK5 (human) = MAPKAPK5 (human) (UniProt Q8IW41)
MARK2 (human) = MARK2 (human) (UniProt Q7KZI7)
MERTK (human) = MERTK (human) (UniProt Q12866)
MET (human) = MET (human) (UniProt P08581)
MYLK (human) = MYLK (human) (UniProt Q15746)
NEK3 (human) = NEK3 (human) (UniProt P51956)
NLK (human) = NLK (human) (UniProt Q9UBE8)
NTRK1 (human) = NTRK1 (human) (UniProt P04629)
NUAK1 (human) = NUAK1 (human) (UniProt O60285)
Chain of NUAK1 (human) (O60285 whole entry, looked up): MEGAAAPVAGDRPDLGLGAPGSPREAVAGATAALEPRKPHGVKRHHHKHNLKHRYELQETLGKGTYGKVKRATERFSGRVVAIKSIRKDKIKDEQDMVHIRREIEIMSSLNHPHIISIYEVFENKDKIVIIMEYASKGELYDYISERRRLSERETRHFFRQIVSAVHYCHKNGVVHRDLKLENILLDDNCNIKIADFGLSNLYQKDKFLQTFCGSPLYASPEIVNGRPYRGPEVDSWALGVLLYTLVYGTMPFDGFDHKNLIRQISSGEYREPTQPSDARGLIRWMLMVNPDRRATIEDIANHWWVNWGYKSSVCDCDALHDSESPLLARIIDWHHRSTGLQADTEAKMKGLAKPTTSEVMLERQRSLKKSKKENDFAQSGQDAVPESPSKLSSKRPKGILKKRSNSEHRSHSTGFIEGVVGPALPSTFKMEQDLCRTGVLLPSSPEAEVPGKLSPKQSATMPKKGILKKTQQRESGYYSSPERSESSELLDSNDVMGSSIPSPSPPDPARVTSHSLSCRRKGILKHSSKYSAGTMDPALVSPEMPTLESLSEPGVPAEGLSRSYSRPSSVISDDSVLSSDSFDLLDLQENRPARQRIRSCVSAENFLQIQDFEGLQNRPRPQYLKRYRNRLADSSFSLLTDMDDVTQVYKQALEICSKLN

NUAK2 (human) = NUAK2 (human) (UniProt Q9H093)
PHKG2 (human) = PHKG2 (human) (UniProt P15735)
Chain of PHKG2 (human) (P15735 whole entry, looked up): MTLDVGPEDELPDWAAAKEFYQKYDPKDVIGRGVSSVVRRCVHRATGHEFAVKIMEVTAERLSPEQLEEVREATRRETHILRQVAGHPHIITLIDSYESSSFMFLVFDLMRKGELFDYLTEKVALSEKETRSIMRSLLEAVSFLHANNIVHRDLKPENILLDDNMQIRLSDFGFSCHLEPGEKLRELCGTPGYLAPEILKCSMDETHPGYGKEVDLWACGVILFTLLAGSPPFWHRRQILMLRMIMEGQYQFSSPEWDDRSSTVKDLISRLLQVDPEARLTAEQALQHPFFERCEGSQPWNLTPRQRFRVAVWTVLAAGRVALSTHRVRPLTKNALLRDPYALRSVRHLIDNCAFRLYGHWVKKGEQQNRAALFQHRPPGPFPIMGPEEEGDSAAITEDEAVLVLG

PIM2 (human) = PIM2 (human) (UniProt Q9P1W9)
Chain of PIM2 (human) (Q9P1W9 whole entry, looked up): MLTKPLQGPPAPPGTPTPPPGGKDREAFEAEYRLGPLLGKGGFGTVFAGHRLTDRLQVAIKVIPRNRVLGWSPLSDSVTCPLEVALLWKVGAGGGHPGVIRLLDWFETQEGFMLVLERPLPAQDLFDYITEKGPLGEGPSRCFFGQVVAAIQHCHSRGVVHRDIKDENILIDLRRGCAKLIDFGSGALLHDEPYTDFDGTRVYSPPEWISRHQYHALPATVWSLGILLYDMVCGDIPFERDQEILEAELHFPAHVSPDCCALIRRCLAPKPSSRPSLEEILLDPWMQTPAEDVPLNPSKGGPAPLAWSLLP

PRKCA (human) = PRKCA (human) (UniProt P17252)
RIPK2 (human) = RIPK2 (human) (UniProt O43353)
Chain of RIPK2 (human) (O43353 whole entry, looked up): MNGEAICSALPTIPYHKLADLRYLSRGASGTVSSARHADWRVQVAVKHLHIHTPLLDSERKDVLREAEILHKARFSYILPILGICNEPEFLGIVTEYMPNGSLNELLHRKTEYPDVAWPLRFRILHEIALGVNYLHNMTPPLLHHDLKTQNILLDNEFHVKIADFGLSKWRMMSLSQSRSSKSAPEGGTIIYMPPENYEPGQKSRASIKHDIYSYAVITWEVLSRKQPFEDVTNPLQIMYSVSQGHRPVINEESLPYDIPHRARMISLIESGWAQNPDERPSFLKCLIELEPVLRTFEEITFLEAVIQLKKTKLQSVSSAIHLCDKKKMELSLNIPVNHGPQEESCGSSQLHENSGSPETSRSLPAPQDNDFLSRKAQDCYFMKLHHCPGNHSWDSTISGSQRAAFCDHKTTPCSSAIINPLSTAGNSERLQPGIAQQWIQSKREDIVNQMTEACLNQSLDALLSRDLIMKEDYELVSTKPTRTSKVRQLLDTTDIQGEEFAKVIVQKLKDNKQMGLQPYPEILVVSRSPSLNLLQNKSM

RPS6KA1 KD1 KD2 (human) = RPS6KA1 KD1 KD2 (human) (UniProt Q15418)
STK11 (human) = STK11 (human) (UniProt Q15831)
STK3 (human) = STK3 (human) (UniProt Q13188)
STK33 (human) = STK33 (human) (UniProt Q9BYT3)
TAOK2 (human) = TAOK2 (human) (UniProt Q9UL54)
TXK (human) = TXK (human) (UniProt P42681)

Structure (SMILES): CCCNC(=O)Nc1ccc(Oc2ncnc3cc(OC)c(OC)cc23)cc1Cl
- residual activity (ABL2 (human)): 90.5%
- residual activity (ACVR1B (human)): 99.6%
- residual activity (ADRBK2 (human)): 96.6%
- residual activity (AURKA (human)): 89.2%
- residual activity (BRSK1 (human)): 98.5%
- residual activity (CDC42BPB (human)): 87.4%
- residual activity (CDK2 CCNA2 (human)): 92.8%
- residual activity (CDK9 CCNT1 (human)): 98%
- residual activity (CSNK1A1 (human)): 98.9%
- residual activity (CSNK1E (human)): 78.5%
- residual activity (CSNK1G3 (human)): 105%
- residual activity (EPHA4 (human)): 93.4%
- residual activity (EPHA8 (human)): 105%
- residual activity (EPHB3 (human)): 93.7%
- residual activity (FLT1 (human)): 65.2%
- residual activity (GRK4 (human)): 94.4%
- residual activity (GRK6 (human)): 95%
- residual activity (HIPK2 (human)): 97.9%
- residual activity (JAK3 JH1 JH2 (human)): 88.9%
- residual activity (KDR (human)): 19.7%
- residual activity (MAP3K8 (human)): 104%
- residual activity (MAPK9 (human)): 104%
- residual activity (MAPKAPK5 (human)): 92.2%
- residual activity (MARK2 (human)): 96.2%
- residual activity (MERTK (human)): 67.7%
- residual activity (MET (human)): 73.6%
- residual activity (MYLK (human)): 97.4%
- residual activity (NEK3 (human)): 93.8%
- residual activity (NLK (human)): 90.7%
- residual activity (NTRK1 (human)): 93.2%
- residual activity (NUAK1 (human)): 92.3%
- residual activity (NUAK2 (human)): 123%
- residual activity (PHKG2 (human)): 84.1%
- residual activity (PIM2 (human)): 101%
- residual activity (PRKCA (human)): 99.3%
- residual activity (RIPK2 (human)): 84.8%
- residual activity (RPS6KA1 KD1 KD2 (human)): 92.3%
- residual activity (STK11 (human)): 87.3%
- residual activity (STK3 (human)): 85%
- residual activity (STK33 (human)): 88.1%
- residual activity (TAOK2 (human)): 94.5%
- residual activity (TXK (human)): 101%

Structure (SMILES): Cc1cc2ncc(-c3ccccc3)nc2cc1C
- residual activity (ABL2 (human)): 103%
- residual activity (ACVR1B (human)): 97.7%
- residual activity (ADRBK2 (human)): 87.4%
- residual activity (AURKA (human)): 92.1%
- residual activity (BRSK1 (human)): 95.1%
- residual activity (CDC42BPB (human)): 101%
- residual activity (CDK2 CCNA2 (human)): 99.3%
- residual activity (CDK9 CCNT1 (human)): 93.9%
- residual activity (CSNK1A1 (human)): 95.4%
- residual activity (CSNK1E (human)): 85.5%
- residual activity (CSNK1G3 (human)): 99%
- residual activity (EPHA4 (human)): 95.4%
- residual activity (EPHA8 (human)): 94.5%
- residual activity (EPHB3 (human)): 98.4%
- residual activity (FLT1 (human)): 85.2%
- residual activity (GRK4 (human)): 94.9%
- residual activity (GRK6 (human)): 103%
- residual activity (HIPK2 (human)): 97%
- residual activity (JAK3 JH1 JH2 (human)): 101%
- residual activity (KDR (human)): 99.1%
- residual activity (MAP3K8 (human)): 106%
- residual activity (MAPK9 (human)): 104%
- residual activity (MAPKAPK5 (human)): 95.1%
- residual activity (MARK2 (human)): 84.5%
- residual activity (MERTK (human)): 81.4%
- residual activity (MET (human)): 95.1%
- residual activity (MYLK (human)): 102%
- residual activity (NEK3 (human)): 93.7%
- residual activity (NLK (human)): 92.8%
- residual activity (NTRK1 (human)): 105%
- residual activity (NUAK1 (human)): 92.3%
- residual activity (NUAK2 (human)): 124%
- residual activity (PHKG2 (human)): 83.9%
- residual activity (PIM2 (human)): 81%
- residual activity (PRKCA (human)): 90.5%
- residual activity (RIPK2 (human)): 98.3%
- residual activity (RPS6KA1 KD1 KD2 (human)): 99.2%
- residual activity (STK11 (human)): 94%
- residual activity (STK3 (human)): 98.9%
- residual activity (STK33 (human)): 94.1%
- residual activity (TAOK2 (human)): 105%
- residual activity (TXK (human)): 99.5%

Structure (SMILES): CC(C)n1cnc2c(Nc3cccc(Cl)c3)nc(NCCO)nc21
- residual activity (ABL2 (human)): 60.7%
- residual activity (ACVR1B (human)): 101%
- residual activity (ADRBK2 (human)): 90.5%
- residual activity (AURKA (human)): 108%
- residual activity (BRSK1 (human)): 93.1%
- residual activity (CDC42BPB (human)): 109%
- residual activity (CDK2 CCNA2 (human)): 42%
- residual activity (CDK9 CCNT1 (human)): 87.4%
- residual activity (CSNK1A1 (human)): 62.3%
- residual activity (CSNK1E (human)): 65.4%
- residual activity (CSNK1G3 (human)): 6.89%
- residual activity (EPHA4 (human)): 87.5%
- residual activity (EPHA8 (human)): 98.2%
- residual activity (EPHB3 (human)): 119%
- residual activity (FLT1 (human)): 93.4%
- residual activity (GRK4 (human)): 93.5%
- residual activity (GRK6 (human)): 88.8%
- residual activity (HIPK2 (human)): 93.3%
- residual activity (JAK3 JH1 JH2 (human)): 24.7%
- residual activity (KDR (human)): 103%
- residual activity (MAP3K8 (human)): 92.2%
- residual activity (MAPK9 (human)): 101%
- residual activity (MAPKAPK5 (human)): 68.6%
- residual activity (MARK2 (human)): 98.7%
- residual activity (MERTK (human)): 89.7%
- residual activity (MET (human)): 83.9%
- residual activity (MYLK (human)): 87.8%
- residual activity (NEK3 (human)): 92.6%
- residual activity (NLK (human)): 102%
- residual activity (NTRK1 (human)): 98.2%
- residual activity (NUAK1 (human)): 67.3%
- residual activity (NUAK2 (human)): 89.8%
- residual activity (PHKG2 (human)): 93.2%
- residual activity (PIM2 (human)): 97%
- residual activity (PRKCA (human)): 78.6%
- residual activity (RIPK2 (human)): 84.3%
- residual activity (RPS6KA1 KD1 KD2 (human)): 69.1%
- residual activity (STK11 (human)): 76.1%
- residual activity (STK3 (human)): 94.6%
- residual activity (STK33 (human)): 68.1%
- residual activity (TAOK2 (human)): 97.2%
- residual activity (TXK (human)): 78.1%
